Test results published in patent US5767253A, “A83543 Compounds; factors Q, R, S, and T” (priority 1995, dated 1998).
In brackets after ≈: the same amount, converted by molar mass.

Experiments:
Tobacco Budworm = assay: Mite/insect screen, Tobacco Budworm (TBW); format: in vivo; conditions: Heliothis virescens, 144 h, 6 day, mean of single replicate tests
Procedure: (§1) The Formula 2 compounds were tested for miticidal and insecticidal activity in the following mite/insect screen. Each test compound was formulated by dissolving the compound in an acetone-alcohol (1:1) mixture containing 23 g of TOXIMUL R (sulfonate/nonionic emulsifier blend) and 13 g of TOXIMUL S (sulfonate/nonionic emulsifier blend) per liter. These mixtures were then diluted with water to give the indicated concentrations.
(§2) Two-spotted spider mites and cotton aphids were introduced on squash cotyledons and allowed to establish on both leaf surfaces. The leaves were then sprayed with 5 ml of test solutions using a DeVilbiss atomizing sprayer at 10 psi. Both surfaces of the leaves were covered until run off and then allowed to dry for one hour. After standard exposure periods percent mortality was evaluated. Additional insects were evaluated using similar formulations and evaluation procedures. The results are reported in Table V. The following abbreviations are used: […]

Blowfly Larvae = assay: Activity against blowfly larvae (in vitro); format: in vivo
From the text: (§3) Tables VII and VIII summarize in vitro studies using compounds of the present invention against members of the insect order Diptera.

neonate tobacco budworm = assay: LD50 against neonate tobacco budworm; format: in vivo; conditions: Heliothis virescens; neonate larvae; mean of two tests; mortality evaluated at 24 and 48 hours
Procedure: The Formula 2 compounds were evaluated in the following assay to determine the LD50 against neonate tobacco budworm (Heliothis virescens). A petri dish (100 mm ×20 mm) is inverted and the lid lined with a #1 qualitative filter paper. Ten neonate larvae are placed in each dish and a 1 ml test solution is pipetted onto the insects. The petri dish bottom is then placed on the lid to contain the larvae. At 1 hr. after treatment, a small piece of Heliothis diet (modified slurry, Southland Products, Lake Village, Ariz.) is added to each dish. The mortality is evaluated at 24 and 48 hours. The tests were run in triplicate.

German Cockroach = assay: Mite/insect screen, German Cockroach (GECR); format: in vivo; conditions: Blattella germanica, mean of single replicate tests
Procedure: as §1, §2

Southern Corn Rootworm = assay: Mite/insect screen, Southern Corn Rootworm (SCRW); format: in vivo, Diabrotica undecimpunctata howardi; conditions: 264 h, 11 day, mean of single replicate tests
Procedure: as §1, §2

Cotton Aphid = assay: Mite/insect screen, Cotton Aphid (CA); format: in vivo, Aphis gossypii Glover; conditions: Aphis gossypii, 4-5 day, mean of single replicate tests
Procedure: as §1, §2

Adult Stablefly = assay: Activity against adult stablefly (in vitro); format: in vivo; conditions: Stomoxys calcitrans
From the text: as §3

Aster Leafhopper = assay: Mite/insect screen, Aster Leafhopper (ALH); format: in vivo; conditions: Macrosteles fascifrons, 24 hr, mean of single replicate tests
Procedure: as §1, §2

Two-spotted Spider Mite = assay: Mite/insect screen, Two-spotted Spider Mite (TSSM); format: in vivo; conditions: Tetranychus urticae, 4-5 day, mean of single replicate tests
Procedure: as §1, §2

Beet Armyworm = assay: Mite/insect screen, Beet Armyworm (BAW); format: in vivo, Spodoptera exiqua; conditions: Spodoptera exigua, 144 h, 6 day, mean of single replicate tests
Procedure: as §1, §2

Rootknqt Nemat.ode = assay: Mite/insect screen, Rootknot Nematode (NEM); format: in vivo, Meliiodyne spp.; conditions: 264 h, 11 day, mean of single replicate tests
Procedure: as §1, §2

| Structure (SMILES) | inhibition at 21 ppm (Tobacco Budworm) [%] | inhibition at 64 ppm (Tobacco Budworm) [%] | % mortality (Blowfly Larvae; 5 ppm, 24 hrs.) [%] | % mortality (Blowfly Larvae; 5 ppm, 48 hrs.) [%] | % mortality (Blowfly Larvae; 10 ppm, 24 hrs.) [%] | LC50 (neonate tobacco budworm) [µg/mL] | inhibition at 50 ppm (German Cockroach; 168 h, 7 day) [%] | inhibition at 400 ppm (German Cockroach; 168 h, 7 day) [%] | inhibition at 50 ppm (German Cockroach; 504 h, 21 day) [%] | inhibition at 400 ppm (German Cockroach; 504 h, 21 day) [%] | inhibition at 400 ppm (Southern Corn Rootworm) [%] | inhibition at 50 ppm (Cotton Aphid) [%] | inhibition at 400 ppm (Cotton Aphid) [%] | inhibition at 50 ppm (Aster Leafhopper) [%] | inhibition at 400 ppm (Aster Leafhopper) [%] | inhibition at 50 ppm (Two-spotted Spider Mite) [%] | inhibition at 400 ppm (Two-spotted Spider Mite) [%] | inhibition at 50 ppm (Beet Armyworm) [%] | inhibition at 400 ppm (Beet Armyworm) [%] | inhibition at 400 ppm (Rootknqt Nemat.ode) [%] | other results |
| --- | --- | --- | --- | --- | --- | --- | --- | --- | --- | --- | --- | --- | --- | --- | --- | --- | --- | --- | --- | --- | --- |
| CC[C@H]1CCC[C@H](O[C@H]2CC[C@H](N(C)C)[C@@H](C)O2)[C@@H](C)C(=O)C2=C[C@@H]3[C@@H](C=C(C)[C@@H]4C[C@@H](O[C@@H]5O[C@@H](C)[C@H](OC)[C@@H](OC)[C@H]5O)C[C@@H]34)[C@@H]2CC(=O)O1 [A83543Q] | 100 | 100 | 90 | 90 | 100 | 0.39 (≈ 0.533 µM) | 0 | 0 | 0 | 0 | 0 | 0 | 0 | 100 | 100 | 70 | 100 | 100 | 100 | 0 | % mortality (Blowfly Larvae; 10 ppm, 48 hrs.): 100%; mortality at 5 ppm (Adult Stablefly; 24 h): 50%; mortality at 10 ppm (Adult Stablefly; 24 h): 90%; mortality at 5 ppm (Adult Stablefly; 48 h): 90%; mortality at 10 ppm (Adult Stablefly; 48 h): 100% |
| CC[C@H]1CCC[C@H](O[C@H]2CC[C@H](NC)[C@@H](C)O2)[C@@H](C)C(=O)C2=C[C@@H]3[C@@H](C=C[C@@H]4C[C@@H](O[C@@H]5O[C@@H](C)[C@H](OC)[C@@H](OC)[C@H]5O)C[C@@H]34)[C@@H]2CC(=O)O1 [A83543R] | 63 | 88 | 90 | 100 | 100 | 14.5 (≈ 20.6 µM) | 0 | 0 | 20 | 0 | 0 | 0 | 0 | 0 | 0 | 85 | 90 | 0 | 0 | 0 | % mortality (Blowfly Larvae; 10 ppm, 48 hrs.): 100%; mortality at 5 ppm (Adult Stablefly; 24 h): 70%; mortality at 10 ppm (Adult Stablefly; 24 h): 90%; mortality at 5 ppm (Adult Stablefly; 48 h): 100%; mortality at 10 ppm (Adult Stablefly; 48 h): 100% |
| CO[C@@H]1[C@@H](OC)[C@@H](O)[C@H](O[C@H]2C[C@H]3[C@@H]4C=C5C(=O)[C@H](C)[C@@H](O[C@H]6CC[C@H](N(C)C)[C@@H](C)O6)CCC[C@H](C)OC(=O)C[C@H]5[C@@H]4C=C[C@@H]3C2)O[C@H]1C [A83543S] | 26 | 53 | 0 | 0 | 60 | 53 (≈ 75.3 µM) | 0 | 0 | 0 | 20 | 0 | 0 | 0 | 60 | 100 | 0 | 0 | 100 | 100 | 0 | % mortality (Blowfly Larvae; 10 ppm, 48 hrs.): 60%; mortality at 50 ppm (Adult Stablefly; 24 h): 100%; mortality at 100 ppm (Adult Stablefly; 24 h): 90%; mortality at 50 ppm (Adult Stablefly; 48 h): 100%; mortality at 100 ppm (Adult Stablefly; 48 h): 100% |
| CC[C@H]1CCC[C@H](O[C@H]2CC[C@H](N(C)C)[C@@H](C)O2)[C@@H](C)C(=O)C2=C[C@@H]3[C@@H](C=C[C@@H]4C[C@@H](O[C@@H]5O[C@@H](C)[C@H](OC)[C@@H](O)[C@H]5O)C[C@@H]34)[C@@H]2CC(=O)O1 [A83543T] | 0 | 0 | – | – | – | > 64 | 0 | 0 | 0 | 0 | 0 | 0 | 0 | 20 | 100 | 0 | 0 | 0 | 0 | 0 | % mortality (Blowfly Larvae; 50 ppm, 24 hrs.): 0%; % mortality (Blowfly Larvae; 50 ppm, 48 hrs.): 0%; % mortality (Blowfly Larvae; 100 ppm, 24 hrs.): 0%; % mortality (Blowfly Larvae; 100 ppm, 48 hrs.): 0%; mortality at 50 ppm (Adult Stablefly; 24 h): 60%; mortality at 100 ppm (Adult Stablefly; 24 h): 80%; mortality at 50 ppm (Adult Stablefly; 48 h): 70%; mortality at 100 ppm (Adult Stablefly; 48 h): 90% |
